Several values for one entry are separate records, joined by “and”; a condition that tells them apart may be missing. Equal entries are not always repeated.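 These data come from cells grown in 96-well plates and exposed to compound for 48 hours at five concentrations. At the GI50, growth is halved. TGI: concentration producing complete growth inhibition.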
Test system: MDA-N
Experiment: NCI tumour cell line growth inhibition, 48 h

With c1csc(C(NC2=NCCO2)C2CC2)c1 (stereo not drawn) the TGI was > 100000 nM.
In the case of CC(=O)Nc1cc(/C=C\C(=O)N2CC(CCl)c3c2cc(N)c2ccccc32)n(C)n1 (stereo not drawn), the GI50 is reported as 13.6 nM and the TGI is reported as 41.1 nM and 43.5 nM.
